In patent publication US12285407B2, “Bis-indolylmethane derivatives and uses thereof” (The University of The West Indies, priority 2018, dated 2025):

Assays:
Klebsiella pneumoniae = test: Checkerboard synergy (FICI) of antibiotics with SP-BIM; assay type: cell-based
clinical strains of MRSA = test: Kirby Bauer disc diffusion susceptibility profile; assay type: cell-based, Staphylococcus aureus; settings: for Zone of clearance: 35° C., 24 hours, average n=3; for Interpretive standard (resistant/susceptible): zones vs EUCAST breakpoints (Table 30)
[1] = system: clinical antibiotic resistant isolates of MRSA; test: Checkerboard resistance breaking by SP-BIM 13; assay type: cell-based, Staphylococcus aureus; settings: for FIC compound: SP-BIM 13 with the labelled antibiotic; for Interpretation / Σ FIC: antibiotic + SP-BIM 13; for MIC of antibiotic only: antibiotic alone; for FIC antibiotic: combination with SP-BIM 13; for MIC of antibiotic in combination: with SP-BIM 13 at rescue concentration
MRSA HS 10132 = test: Systemic lethal MRSA infection in mice (survival); assay type: in vivo; settings: ampicillin only, 5 days
Enterococcus faecalis = test: Adjuvant broth microdilution (antibiotic MIC with SP-BIM at 50 μg/mL); assay type: cell-based; settings: antibiotic alone

SMILES: CC1(C)S[C@@H]2[C@H](NC(=O)[C@H](N)c3ccccc3)C(=O)N2[C@H]1C(=O)O [Ampicillin, ampicillin]
- Interpretation (Klebsiella pneumoniae; antibiotic + SP-BIM 13): Indifferent (Indifferent: FICI>1.0-4.0)
- Σ FIC (Klebsiella pneumoniae; antibiotic + SP-BIM 13): <1.3
- MIC in combination, Antibiotic (Klebsiella pneumoniae; antibiotic in combination with SP-BIM 9): 2 µg/mL
- MIC in combination, Antibiotic (Klebsiella pneumoniae; antibiotic in combination with SP-BIM 13): 250 µg/mL
- FIC of antibiotic (Klebsiella pneumoniae; in combination with SP-BIM 9): 0.008
- FIC of antibiotic (Klebsiella pneumoniae; in combination with SP-BIM 13): 1.0
- Zone of clearance (clinical strains of MRSA; MRSA strain 1594): 13.0 mm
- Interpretive standard (resistant/susceptible) (clinical strains of MRSA; MRSA strain 1594): R
- Interpretive standard (resistant/susceptible) (clinical strains of MRSA; MRSA strain 1621): R
- Zone of clearance (clinical strains of MRSA; MRSA strain 5455): 14.5 mm
- Interpretive standard (resistant/susceptible) (clinical strains of MRSA; MRSA strain 5455): R
- Zone of clearance (clinical strains of MRSA; MRSA strain 5872): 9.0 mm
- Interpretive standard (resistant/susceptible) (clinical strains of MRSA; MRSA strain 5872): R
- Zone of clearance (clinical strains of MRSA; MRSA strain 7153): 13.5 mm
- Interpretive standard (resistant/susceptible) (clinical strains of MRSA; MRSA strain 7153): R
- Zone of clearance (clinical strains of MRSA; MRSA strain 7172): 14.5 mm
- Interpretive standard (resistant/susceptible) (clinical strains of MRSA; MRSA strain 7172): R
- Zone of clearance (clinical strains of MRSA; MRSA strain 7698): 10.5 mm
- Interpretive standard (resistant/susceptible) (clinical strains of MRSA; MRSA strain 7698): R
- Zone of clearance (clinical strains of MRSA; MRSA strain 10132): 14.0 mm
- Interpretive standard (resistant/susceptible) (clinical strains of MRSA; MRSA strain 10132): R
- FIC compound ([1]; MRSA strain 1594): 0.128
- Interpretation ([1]; MRSA strain 1594): Synergy (Synergy: FICI≤0.5)
- Σ FIC ([1]; MRSA strain 1594): <0.14
- MIC of antibiotic only ([1]; MRSA strain 1594): 250 µg/mL
- FIC antibiotic ([1]; MRSA strain 1594): 0.016
- MIC of antibiotic in combination ([1]; MRSA strain 1594): 4 µg/mL
- FIC compound ([1]; MRSA strain 1621): 0.128
- Interpretation ([1]; MRSA strain 1621): Synergy (Synergy: FICI≤0.5)
- Σ FIC ([1]; MRSA strain 1621): <0.13
- MIC of antibiotic only ([1]; MRSA strain 1621): 250 µg/mL
- FIC antibiotic ([1]; MRSA strain 1621): 0.002
- MIC of antibiotic in combination ([1]; MRSA strain 1621): 0.5 µg/mL
- FIC compound ([1]; MRSA strain 5455): 0.252
- Interpretation ([1]; MRSA strain 5455): Synergy (Synergy: FICI≤0.5)
- Σ FIC ([1]; MRSA strain 5455): <0.26
- MIC of antibiotic only ([1]; MRSA strain 5455): 250 µg/mL
- FIC antibiotic ([1]; MRSA strain 5455): 0.004
- MIC of antibiotic in combination ([1]; MRSA strain 5455): 1 µg/mL
- FIC compound ([1]; MRSA strain 5872): 0.128
- Interpretation ([1]; MRSA strain 5872): Synergy (Synergy: FICI≤0.5)
- Σ FIC ([1]; MRSA strain 5872): <0.13
- MIC of antibiotic only ([1]; MRSA strain 5872): 250 µg/mL
- FIC antibiotic ([1]; MRSA strain 5872): 0.002
- MIC of antibiotic in combination ([1]; MRSA strain 5872): 0.5 µg/mL
- FIC compound ([1]; MRSA strain 7153): 0.252
- Interpretation ([1]; MRSA strain 7153): Synergy (Synergy: FICI≤0.5)
- Σ FIC ([1]; MRSA strain 7153): <0.25
- MIC of antibiotic only ([1]; MRSA strain 7153): 250 µg/mL
- FIC antibiotic ([1]; MRSA strain 7153): 0.002
- MIC of antibiotic in combination ([1]; MRSA strain 7153): 0.5 µg/mL
- FIC compound ([1]; MRSA strain 7172): 0.128
- Interpretation ([1]; MRSA strain 7172): Synergy (Synergy: FICI≤0.5)
- Σ FIC ([1]; MRSA strain 7172): <0.14
- MIC of antibiotic only ([1]; MRSA strain 7172): 250 µg/mL
- FIC antibiotic ([1]; MRSA strain 7172): 0.008
- MIC of antibiotic in combination ([1]; MRSA strain 7172): 2 µg/mL
- FIC compound ([1]; MRSA strain 7698): 0.128
- Interpretation ([1]; MRSA strain 7698): Synergy (Synergy: FICI≤0.5)
- Σ FIC ([1]; MRSA strain 7698): <0.14
- MIC of antibiotic only ([1]; MRSA strain 7698): 250 µg/mL
- FIC antibiotic ([1]; MRSA strain 7698): 0.008
- MIC of antibiotic in combination ([1]; MRSA strain 7698): 2 µg/mL
- FIC compound ([1]; MRSA strain 10132): 0.064
- Interpretation ([1]; MRSA strain 10132): Synergy (Synergy: FICI≤0.5)
- Σ FIC ([1]; MRSA strain 10132): <0.07
- MIC of antibiotic only ([1]; MRSA strain 10132): 250 µg/mL
- FIC antibiotic ([1]; MRSA strain 10132): 0.002
- MIC of antibiotic in combination ([1]; MRSA strain 10132): 0.5 µg/mL
- MIC of antibiotic without SP-BIM 13 ([1]; clinical MRSA strains): ≥ 250 µg/mL
- mortality (MRSA HS 10132): 100%
- MIC of antibiotic, No Compound (Enterococcus faecalis): 2 µg/mL
